# Test system: Coptotermes acinaciformis
# Assay: ensis mean mass loss test: laboratory termite bioassay of treated Pinus radiata specimens, eight weeks
# Assay type: in vivo
# Settings: 8 weeks exposure, mean of 6 replicates, SE in parentheses
# Source text: Pinus radiata D. Don (Radiata pine) specimens (20×20×10 mm long) were cut from the sapwood of several pruned, fast-grown trees that had been harvested from the northern plantation forests of […], Australia. These samples are referred to as “ensis samples.” Trees were 20 to 24 years old. Specimens were pooled and randomly allocated into treatment groups. Prior to treatment, specimens were conditioned to 9.5% moisture content (m.c.). […] The solutions were used immediately. The following impregnation protocol was used: (the “ensis impregnation protocol”). Specimens were treated by drawing a vacuum of -95 kPa for 30 minutes, introducing the preservative solution while under vacuum, and immediately releasing the vacuum. Specimens were allowed to absorb the solution for 30 minutes atmospheric pressure. Each specimen was weighed before and immediately after treatment to determine retention. The specimens closest to the desired retentions were selected. Prior to bioassay against termites, all test specimens from each treatment were artificially weathered to H2 conditions by vacuum oven drying for three days at 40° C. and -95 kPa. After removal from the vacuum ovens, the specimens were cooled in a desiccator before being weighed to obtain initial masses. At each stage, care was taken to ensure that specimens of different treatments were kept separate. The weathering step removed from the specimens any volatiles that may be deleterious to termite health and vigor, as well as to provide artificial ageing. The test specimens were subjected to bioassay in accordance with the minimum requirements specified for H2 conditions in the Australasian Wood Preservation Committee Protocols for Assessment of Wood Preservatives (AWPC 1997), using one species of subterranean termite, Coptotermes acinaciformis. C. acinaciformis is widely distributed throughout mainland Australia and is responsible for greater economic loss that all other species of Australian termites combined (Gay and Calaby 1970). Only fresh, field collected stocks of termites were used for the bioassay. These termites were collected from the Northern Territory, transported by air to the Ensis Clayton laboratory and used promptly. Six replicate test specimens of each treatment were exposed to termites. A further three specimens were designated as vacuum oven controls. The following testing protocol was used (the “[…] loss test”). A single test specimen was centered on a 29 mm plastic disc to stop diffusion of boron out of the specimen. They were centrally placed on a moist matrix of C. acinaciformis finely ground mound material (20g, 100% m.c.) within a 250 ml glass jar (96 mm high, 62 mm diameter). Five grams of C. acinaciformis were added to each jar. A plastic lid, with a central 9 mm diameter ventilator, closed the jar (FIG. 1). The duration of the bioassay was eight weeks. The bioassay was conducted in an insectary maintained at 27° C., 70% RH. […] At the conclusion of the bioassay, test specimens were removed from the jars and cleaned. The test specimens, as well as vacuum oven controls, were then vacuum oven dried under the same conditions that were used to obtain the initial masses (i.e., 3 days at 40° C. and -95 kPa). After cooling and weighing the specimens, the final and initial masses were compared to obtain mass loss. If necessary, the mass loss of specimens exposed to termites was adjusted to accommodate any changes recorded in the vacuum oven controls.
Structure (SMILES),Mean mass loss (target retention 2.5 g/m^3 bifenthrin),Mean mass loss (target retention 5.0 g/m^3 bifenthrin),Mean mass loss (target retention 7.5 g/m^3 bifenthrin),Mean mass loss (target retention 0.1% BAE (% m/m in OD wood)),Mean mass loss (target retention 0.2% BAE),Mean mass loss (target retention 0.5% BAE)
Cc1c(COC(=O)[C@@H]2[C@H](/C=C(\Cl)C(F)(F)F)C2(C)C)cccc1-c1ccccc1 (racemic) [bifenthrin],15.6 (2.9) %,4.8 (0.5) %,4.2 (0.4) %,–,–,–
"O.O.O.O.O=BOB1OB(OB=O)OB2OB([O-])OB([O-])OB(O1)O2.[Na+].[Na+] [BAE, disodium octaborate tetrahydrate]",–,–,–,93.5 (3.9) %,30.9 (5.3) %,48.6 (12.7) %
